From patent publication US8846704B2, “Thiopyrimidine-based compounds and uses thereof” (YM Biosciences Austraila Pty Ltd, priority 2007, dated 2014)
pIC50: −log10 of the molar value.

Columns and labels:
[1] = target: T1, BaF3 TELJAK2 cells (BafT_J2) (Homo sapiens, UniProt O60674); assay: Cellular screening, BaF3 TEL:JAK2 cells, Alamar Blue; type: cell-based; settings: 40 hr, read-out: BafT_J2 IC50_nM
T1 construct: fused on or other part: TEL (ETV6) N-terminal part, coding nucleotides 1-487, serves as the oligomerising partner; It is fused through a Sal I site to the JAK2 kinase domain and expressed from pTRE2 in BaF3 cells bearing pTET-off; P41212 (Transcription factor ETV6)
T1 sequence (O60674 whole entry, change not shown, the tested form may be a part): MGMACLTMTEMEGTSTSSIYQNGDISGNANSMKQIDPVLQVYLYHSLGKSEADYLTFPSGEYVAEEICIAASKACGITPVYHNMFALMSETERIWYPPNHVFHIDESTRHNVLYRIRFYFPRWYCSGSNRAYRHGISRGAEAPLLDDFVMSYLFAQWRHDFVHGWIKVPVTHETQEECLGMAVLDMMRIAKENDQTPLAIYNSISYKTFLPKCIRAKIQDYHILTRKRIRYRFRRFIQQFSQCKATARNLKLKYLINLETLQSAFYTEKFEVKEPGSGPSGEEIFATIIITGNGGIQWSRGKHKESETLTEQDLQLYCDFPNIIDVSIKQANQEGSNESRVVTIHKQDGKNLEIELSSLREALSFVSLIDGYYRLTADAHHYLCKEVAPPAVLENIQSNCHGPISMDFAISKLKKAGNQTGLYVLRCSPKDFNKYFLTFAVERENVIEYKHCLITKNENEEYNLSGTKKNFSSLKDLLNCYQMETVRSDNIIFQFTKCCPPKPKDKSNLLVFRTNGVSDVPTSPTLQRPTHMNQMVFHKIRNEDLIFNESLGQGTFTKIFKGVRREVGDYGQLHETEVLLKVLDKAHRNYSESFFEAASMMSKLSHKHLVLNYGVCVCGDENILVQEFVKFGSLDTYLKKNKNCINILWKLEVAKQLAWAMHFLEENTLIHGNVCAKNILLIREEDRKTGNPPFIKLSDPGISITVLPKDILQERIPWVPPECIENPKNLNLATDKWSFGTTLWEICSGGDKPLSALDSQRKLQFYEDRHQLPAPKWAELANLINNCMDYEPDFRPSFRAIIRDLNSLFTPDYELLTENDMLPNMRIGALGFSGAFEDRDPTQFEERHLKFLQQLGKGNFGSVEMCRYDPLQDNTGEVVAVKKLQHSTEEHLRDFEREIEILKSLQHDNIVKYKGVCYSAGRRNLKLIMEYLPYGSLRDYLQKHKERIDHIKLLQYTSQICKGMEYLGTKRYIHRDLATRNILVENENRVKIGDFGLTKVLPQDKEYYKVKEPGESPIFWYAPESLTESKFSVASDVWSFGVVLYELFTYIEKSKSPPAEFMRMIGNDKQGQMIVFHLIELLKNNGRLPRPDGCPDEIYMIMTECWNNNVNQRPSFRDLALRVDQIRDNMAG
Method in brief: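 Tet-off BaF3 cells carrying a TEL (nt 1-487)–JAK2 kinase-domain fusion, grown factor-independently in DMEM with 10% Tet-approved FBS without WEHI 3B medium. Compounds were diluted to 20 μM in screening plates, and cells (50,000–200,000 cell/mL at 1.1×) were incubated 40 hr at 37 °C, 5% CO2. Alamar Blue was then added for 4-6 hours; read at 544 nm.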

[2] = target: T2, human JAK3 (Homo sapiens, UniProt P52333); assay: Alphascreen tyrosine kinase enzyme assay, JAK3 kinase domain; type: biochemical; settings: read-out: JAK3 IC50_nM
T2 construct: The kinase domain of human JAK3 was amplified; GST (N); made in house; host or cells: Sf9 insect cells (baculovirus)
T2 sequence (P52333 822-1111 limits assumed): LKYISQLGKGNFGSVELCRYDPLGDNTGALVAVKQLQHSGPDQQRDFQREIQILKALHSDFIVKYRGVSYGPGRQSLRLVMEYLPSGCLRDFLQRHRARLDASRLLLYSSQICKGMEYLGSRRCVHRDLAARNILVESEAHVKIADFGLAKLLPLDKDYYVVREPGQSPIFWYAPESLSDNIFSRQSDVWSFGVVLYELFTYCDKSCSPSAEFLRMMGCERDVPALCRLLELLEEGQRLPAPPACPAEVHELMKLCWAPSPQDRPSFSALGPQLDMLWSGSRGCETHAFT
Method in brief: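 GST-affinity-purified human JAK3 kinase domain (baculovirus/Sf9) was pre-incubated 20 min with compound ([…]) in HEPES pH 7.5 buffer with MgCl2, vanadate and Tween 20. Biotinylated peptide substrate ([…]) and ATP were then added; phosphotyrosine was detected by AlphaScreen PY100 acceptor and streptavidin donor beads after 2–3 h.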

[3] = target: T3, human JAK2 (Homo sapiens, UniProt O60674); assay: Alphascreen tyrosine kinase enzyme assay, JAK2 kinase domain; type: biochemical; settings: read-out: JAK2 IC50_nM
T3 construct: The kinase domain of human JAK2 was amplified; GST (N); made in house; host or cells: Sf9 insect cells (baculovirus)
T3 sequence (O60674 849-1124 limits assumed): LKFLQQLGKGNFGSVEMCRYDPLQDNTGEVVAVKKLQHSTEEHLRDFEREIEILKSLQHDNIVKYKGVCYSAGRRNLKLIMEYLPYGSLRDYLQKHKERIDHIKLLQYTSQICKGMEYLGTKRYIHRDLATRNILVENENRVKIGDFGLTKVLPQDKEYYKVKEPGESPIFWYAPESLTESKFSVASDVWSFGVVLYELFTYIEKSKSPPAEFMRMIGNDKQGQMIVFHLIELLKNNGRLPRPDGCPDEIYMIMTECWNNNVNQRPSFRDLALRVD
Method in brief: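 JAK2 kinase domain expressed in baculovirus/Sf9 and glutathione-affinity purified. Compounds (final […]) pre-incubated 20 min with enzyme in 10 mM HEPES pH 7.5, MgCl2, NaCl, vanadate, 0.1% Tween 20.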

Structure (SMILES)	GI50 [1] [µM]	pIC50 [2]	pIC50 [3]
C=CC(=O)Nc1ccc(Sc2ccnc(Nc3ccc(N4CCOCC4)cc3)n2)cc1OC [Compound 123, N-(2-methoxy-4-(2-(4-morpholinophenylao)pyrimidin-4-ylthio)phenyl)acrylamide]	< 5	> 7.00	< 6.00
Cc1cnc(Nc2ccc(N3CCOCC3)cc2)nc1Sc1ccc(N2C(=O)CSCC2=O)cc1 [Compound 231, 4-(4-(5-methyl-2-(4-morpholinophenylao)pyrimidin-4-ylthio)phenyl)thiomorpholine-3,5-dione]	< 20	> 7.00	< 6.00
C=CC(=O)Nc1ccc(Sc2ccnc(Nc3cccc(CO)c3)n2)cc1 [Compound 278, N-(4-(2-(3-(hydroxymethyl)phenylao)pyrimidin-4-ylthio)phenyl)acrylamide]	< 5	> 7.00	< 6.00
C=CC(=O)Nc1ccc(Sc2nc(Nc3ccc(C4CCN(C)CC4)cc3)ncc2C)cc1 [Compound 246, N-(4-(5-methyl-2-(4-(1-methylpiperidin-4-yl)phenylao)pyrimidin-4-ylthio)phenyl)acrylamide]	< 5	> 7.00	< 6.00
Cc1cnc(Nc2ccc(N3CCOCC3)cc2)nc1Sc1ccc(NC(=O)CSCC(=O)O)cc1 [Compound 230, 2-(2-(4-(5-methyl-2-(4-morpholinophenylao)pyrimidin-4-ylthio)phenylao)-2-oxoethylthio)acetic acid]	> 20	> 7.00	> 6.30
Nc1ccc(Sc2nc(Nc3cccc(N4CCOCC4)c3)ncc2I)cc1 [Compound 264, 4-(4-aophenylthio)-5-iodo-N-(3-morpholinophenyl)pyrimidin-2-ae]	< 5	> 6.30	< 6.00
C=CC(=O)Nc1ccc(Nc2nccc(SC)n2)cc1 [Compound 13, N-(4-(4-(methylthio)pyrimidin-2-ylao)phenyl)acrylamide]	< 20	> 7.00	< 6.00
C=CC(=O)Nc1ccc(Sc2nc(Nc3ccc(N4CCOCC4)nc3)ncc2C)cc1 [Compound 254, N-(4-(5-methyl-2-(6-morpholinopyridin-3-ylao)pyrimidin-4-ylthio)phenyl)acrylamide]	< 5	> 7.00	< 6.00
O=C(/C=C/Cl)Nc1cccc(Sc2ccnc(Nc3ccc(N4CCOCC4)cc3)n2)c1 [Compound 340, (E)-3-chloro-N-(3-(2-(4-morpholinophenylao)pyrimidin-4-ylthio)phenyl)acrylamide]	< 20	> 7.00	< 6.00
C=CC(=O)Nc1ccc(Sc2nc(Nc3ccc(NS(C)(=O)=O)c(OC)c3)ncc2C)cc1 [Compound 296, N-(4-(2-(3-methoxy-4-(methylsulfonamido)phenylao)-5-methylpyrimidin-4-ylthio)phenyl)acrylamide]	< 5	> 7.00	< 6.00
C=CC(=O)Nc1ccc(Sc2nc(Nc3cccc(N4CCOCC4)c3)ncc2I)cc1 [Compound 269, N-(4-(5-iodo-2-(3-morpholinophenylao)pyrimidin-4-ylthio)phenyl)acrylamide]	< 20	> 7.00	< 6.00
Cc1cnc(Nc2ccc(N3CCOCC3)cc2)nc1Sc1ccc(N)cc1Cl [Compound 251, 4-(4-ao-2-chlorophenylthio)-5-methyl-N-(4-morpholinophenyl)pyrimidin-2-ae]	> 20	> 7.00	< 6.00
C=CC(=O)Nc1cccc(Sc2ccnc(Nc3cccc(N4CCOCC4)c3)n2)c1 [Compound 110, N-(3-(2-(3-morpholinophenylao)pyrimidin-4-ylthio)phenyl)acrylamide]	< 20	> 7.00	< 6.00
Cc1cnc(Nc2ccc(N3CCN(C)CC3)cc2)nc1Sc1ccc(N)cc1 [Compound 244, 4-(4-aophenylthio)-5-methyl-N-(4-(4-methylpiperazin-1-yl)phenyl)pyrimidin-2-ae]	< 5	> 7.00	> 6.30
C=CC(=O)Nc1ccc(Sc2nc(Nc3ccc(N4CCOCC4)cc3)ncc2C)cc1C [Compound 259]	< 20	> 7.00	< 6.00
C=CC(=O)Nc1ccc(Sc2ccnc(Nc3cccc(N4CCOCC4)c3)n2)cc1 [Compound 77, N-(4-(2-(3-morpholinophenylao)pyrimidin-4-ylthio)phenyl)acrylamide]	< 5	> 7.00	< 6.00

Structure (SMILES)	GI50 [1] [µM]	pIC50 [2]	pIC50 [3]
Nc1ccc(Sc2ccnc(Nc3ccc(N4CCOCC4)cc3)n2)cc1 [Compound 27, 4-(4-aophenylthio)-N-(4-morpholinophenyl)pyrimidin-2-ae]	> 20	> 6.00	> 6.30
NCc1cccc(Sc2ccnc(Nc3ccc(N4CCOCC4)cc3)n2)c1 [Compound 75, 4-(3-(aomethyl)phenylthio)-N-(4-morpholinophenyl)pyrimidin-2-ae]	< 20	> 6.30	> 6.00
C=CC(=O)N(C)c1ccc(Sc2nc(Nc3ccc(N4CCOCC4)cc3)ncc2Br)cc1 [Compound 261, N-(4-(5-bromo-2-(4-morpholinophenylao)pyrimidin-4-ylthio)phenyl)-N-methylacrylamide]	> 20	> 7.00	> 6.30
Cc1cc(Sc2nc(Nc3ccc(N4CCOCC4)cc3)ncc2C)ccc1N [Compound 255, 4-(4-ao-3-methylphenylthio)-5-methyl-N-(4-morpholinophenyl)pyrimidin-2-ae]	< 20	> 6.30	> 6.00
C=CC(=O)Nc1ccc(Sc2nc(Nc3ccc(OC)c(OC)c3)ncc2C)cc1 [Compound 241, N-(4-(2-(3,4-dimethoxyphenylao)-5-methylpyrimidin-4-ylthio)phenyl)acrylamide]	< 5	> 7.00	< 6.00
N#Cc1nnn(Cc2ccc(Sc3ccnc(Nc4ccc(N5CCOCC5)cc4)n3)cc2)n1 [Compound 156, 2-(4-(2-(4-morpholinophenylao)pyrimidin-4-ylthio)benzyl)-2H-tetrazole-5-carbonitrile]	< 5	> 7.00	< 6.00
C=CC(=O)Nc1ccc(Sc2nc(Nc3ccc(N4CCN(C)CC4)c(OC)c3)ncc2C)cc1 [Compound 249, N-(4-(2-(3-methoxy-4-(4-methylpiperazin-1-yl)phenylao)-5-methylpyrimidin-4-ylthio)phenyl)acrylamide]	< 5	> 7.00	< 6.00
C=CC(=O)Nc1ccc(Sc2nc(Nc3ccc(N4CCN(C)CC4)cc3)ncc2C)cc1 [Compound 239, N-(4-(5-methyl-2-(4-(4-methylpiperazin-1-yl)phenylao)pyrimidin-4-ylthio)phenyl)acrylamide]	< 5	> 7.00	> 6.00
N#CCNCc1cccc(Sc2ccnc(Nc3ccc(N4CCOCC4)cc3)n2)c1 [Compound 68, 2-(3-(2-(4-morpholinophenylao)pyrimidin-4-ylthio)benzylao)acetonitrile]	< 20	> 6.30	> 7.00
C=CC(=O)Nc1ccc(Sc2nc(Nc3ccc(C)c(Br)c3)ncc2C)cc1 [Compound 242, N-(4-(2-(3-bromo-4-methylphenylao)-5-methylpyrimidin-4-ylthio)phenyl)acrylamide]	> 20	> 6.30	< 6.00
C=CC(=O)Nc1ccc(Sc2nc(Nc3ccc(N4CCOCC4)cc3)ncc2F)cc1 [Compound 268, N-(4-(5-fluoro-2-(4-morpholinophenylao)pyrimidin-4-ylthio)phenyl)acrylamide]	> 20	> 7.00	< 6.00
C=CC(=O)Nc1ccc(Sc2ccnc(Nc3ccc(S(N)(=O)=O)c(OC)c3)n2)cc1 [Compound 374, N-(4-(2-(3-methoxy-4-sulfamoylphenylao)pyrimidin-4-ylthio)phenyl)acrylamide]	< 5	> 7.00	< 6.00
C=CC(=O)Nc1ccc(Sc2ccnc(Nc3cc(C)cc(C)c3)n2)cc1 [Compound 82, N-(4-(2-(3,5-dimethylphenylao)pyrimidin-4-ylthio)phenyl)acrylamide]	< 5	> 7.00	< 6.00
C=CC(=O)Nc1ccc(Sc2nc(Nc3ccc(NS(C)(=O)=O)cc3)ncc2C)cc1 [Compound 285, N-(4-(5-methyl-2-(4-(methylsulfonamido)phenylao)pyrimidin-4-ylthio)phenyl)acrylamide]	< 5	> 7.00	< 6.00
C=CC(=O)Nc1ccc(Sc2ccnc(Nc3cccc(O)c3)n2)cc1 [Compound 277, N-(4-(2-(3-hydroxyphenylao)pyrimidin-4-ylthio)phenyl)acrylamide]	< 5	> 7.00	< 6.00
